Experimental data as given in patent publication US9023789B2, “Amylin analogs and pharmaceutical compositions thereof” (Novo Nordisk A/S, priority 2012, dated 2015).
Converted amounts (≈) assume the structure as drawn. Like-named read-outs stand apart in the source and are kept apart here. Numbered stars: 1 amine (or outer) side, 2 acyl side, 3 side chain; on linkers, the order of the positions; unused ones are H or OH. Bridge positions count the residues as written; N and C are the ends. Side chains are listed from the residue outwards. Peptide text beside a SMILES is read from it. * marks the point of attachment. C20 diacid = O=C(O)CCCCCCCCCCCCCCCCCCC(=O)*; γGlu = O=C(O)[C@H](CCC(=O)[*:2])N[*:1]; AEEA = NCCOCCOCC(=O)O

Legend:
[1] = target: T1, rat calcitonin receptor (Rattus norvegicus, UniProt P32214); test: ASSAY (VIII) binding to the rat calcitonin receptor; conditions: Table 7, read-out: rCTR bind IC50
T1 construct: expressed in transfected cells; host or cells: BHK tk'ts 13 (transient, FuGENE 6), membranes
T1 sequence (P32214 25-479 isoform P32214-2 limits assumed): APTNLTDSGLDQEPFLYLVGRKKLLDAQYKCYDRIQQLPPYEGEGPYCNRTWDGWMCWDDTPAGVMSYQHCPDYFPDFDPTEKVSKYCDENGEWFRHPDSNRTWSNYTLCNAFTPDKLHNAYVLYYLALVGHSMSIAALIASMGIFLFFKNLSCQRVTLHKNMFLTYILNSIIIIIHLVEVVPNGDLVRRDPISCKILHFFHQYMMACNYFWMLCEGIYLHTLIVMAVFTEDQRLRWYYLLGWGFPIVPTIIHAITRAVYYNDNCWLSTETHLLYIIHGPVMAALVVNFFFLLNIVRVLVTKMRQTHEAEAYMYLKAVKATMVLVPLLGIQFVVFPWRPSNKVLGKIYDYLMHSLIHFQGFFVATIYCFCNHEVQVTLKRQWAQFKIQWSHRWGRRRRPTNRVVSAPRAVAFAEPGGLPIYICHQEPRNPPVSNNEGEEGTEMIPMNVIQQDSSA
In short: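 Transfect BHK tk′ts 13 cells transiently with rat calcitonin receptor, culture in DMEM containing 10% FBS, collect cells about 48 hours later, then prepare membranes.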

[2] = ASSAY (IV) determination of solubility; format: physicochemical
In short: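 Polypeptide stock in water ([…]) was mixed 1:1 with 100 mM buffers: glycylglycine at pH 3.0, 4.0, 5.0 and bistrispropane at pH 6.0, 6.5, 7.0, 7.5, 8.0. After 18 hours at room temperature, samples were centrifuged and polypeptide concentration measured by UPLC.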

[3] = target: T2, rat amylin receptor (rat calcitonin receptor + rat RAMP 3) (Rattus norvegicus, UniProt P32214+Q9JJ73); test: ASSAY (VI) binding to the rat amylin receptor; conditions: for IC50: binding to rat amylin receptor, read-out: rAmylin-R bind IC50
T2 construct: expressed in transfected cells; host or cells: BHK tk'ts 13 (transient, FuGENE 6), membranes
T2 sequence (P32214 25-479 isoform P32214-2 limits assumed): T1 sequence (P32214 25-479 isoform P32214-2 limits assumed)
T2 sequence (Q9JJ73 23-147 partner): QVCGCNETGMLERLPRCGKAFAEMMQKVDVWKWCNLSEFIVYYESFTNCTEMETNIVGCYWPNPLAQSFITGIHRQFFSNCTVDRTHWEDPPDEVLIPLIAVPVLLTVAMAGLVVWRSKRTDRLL
In short: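 Binding to the rat amylin receptor was determined with membrane preparations. The receptor was expressed by transiently transfecting BHK tk′ts 13 cells with rat calcitonin receptor, using FuGENE® 6 (Roche) according to the manufacturer's recommendations. Roughly 48 hours later the cells were harvested and their membranes isolated.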

[4] = target: T3, human amylin 3(a) receptor (human calcitonin receptor + RAMP-3) in BHK570 cells (Homo sapiens, UniProt O60896+P30988); test: ASSAY (II)a functional assay, human amylin receptor (CRE luciferase); format: cell-based
T3 construct: expressed in transfected cells
In short: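 BHK cells stably carrying a CRE-luciferase reporter plus calcitonin receptor, or calcitonin receptor with RAMP-3 for the amylin 3(a) receptor, were seeded and kept overnight at 37° C. Compounds were added in assay medium with 10% FBS and 10 mM Hepes, pH 7.4, for 3 hours at 37° C, then luminescence was counted.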

[5] = target: T4, human amylin receptor (membranes from Amylin 3(a)/CRE-luc cells) (Homo sapiens, UniProt O60896+P30988); test: ASSAY (V) binding to the human amylin receptor (SPA, 125I-rat amylin);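 further: competition binding of cell membranes (35 ng/µL) mixed with SPA beads in 384-well plates at 40 µL total volume, read by scintillation counting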
T4 construct: expressed in transfected cells
T4 sequence (P30988 25-474): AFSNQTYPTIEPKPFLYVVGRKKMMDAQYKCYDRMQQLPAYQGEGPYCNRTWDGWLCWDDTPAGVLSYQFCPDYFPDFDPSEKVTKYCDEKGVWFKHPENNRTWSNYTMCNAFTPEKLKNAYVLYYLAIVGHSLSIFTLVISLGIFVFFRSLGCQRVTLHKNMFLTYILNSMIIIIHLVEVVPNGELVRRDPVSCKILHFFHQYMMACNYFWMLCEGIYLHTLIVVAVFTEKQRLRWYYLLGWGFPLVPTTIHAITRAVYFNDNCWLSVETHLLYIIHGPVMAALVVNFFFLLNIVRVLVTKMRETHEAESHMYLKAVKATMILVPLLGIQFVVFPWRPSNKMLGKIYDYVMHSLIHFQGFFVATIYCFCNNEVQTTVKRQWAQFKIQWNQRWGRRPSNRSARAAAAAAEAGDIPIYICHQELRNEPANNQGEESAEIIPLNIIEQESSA
T4 sequence (O60896 24-148 partner): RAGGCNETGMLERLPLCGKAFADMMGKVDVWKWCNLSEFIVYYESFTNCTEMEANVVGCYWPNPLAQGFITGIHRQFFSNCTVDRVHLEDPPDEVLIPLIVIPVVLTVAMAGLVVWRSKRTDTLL

[6] = bistrispropane buffer, pH 6.5, read-out: Solubility pH 6.5 Concentration
[7] = bistrispropane buffer, pH 7.5, read-out: Solubility pH 7.5 Concentration
[8] = bistrispropane buffer, pH 6.0, read-out: Solubility pH 6.0 Concentration
[9] = bistrispropane buffer, pH 7.0, read-out: Solubility pH 7.0 Concentration
[10] = bistrispropane buffer, pH 8.0, read-out: Solubility pH 8.0 Concentration
[11] = glycylglycine buffer, pH 3.0, read-out: Solubility pH 3.0 Concentration
[12] = glycylglycine buffer, pH 4.0, read-out: Solubility pH 4.0 Concentration
[13] = glycylglycine buffer, pH 5.0, read-out: Solubility pH 5.0 Concentration
[14] = Table 7, rat binding selectivity, rCTR IC50 / rAmylin-R IC50
[15] = Table 7a (preferred compounds), rat binding selectivity, rCTR IC50 / rAmylin-R IC50
[16] = ratio of rCTR bind IC50 to rAmylin-R bind IC50
[17] = hCTR funct. EC50 divided by hAmylin-R funct. EC50
[18] = hCTR funct. EC50 over hAmylin-R funct. EC50
[19] = human functional selectivity: hCTR funct. EC50 / hAmylin-R funct. EC50
[20] = Table 5, selectivity, hCTR bind IC50 / hAmylin-R bind IC50
[21] = Table 5a, selectivity, hCTR bind IC50 / hAmylin-R bind IC50
[22] = Table 5b, selectivity, hCTR bind IC50 / hAmylin-R bind IC50
[23] = Table 5c, selectivity, hCTR bind IC50 / hAmylin-R bind IC50
[24] = Table 7, human binding selectivity, included for comparison
[25] = Table 7a (preferred compounds), human binding selectivity, included for comparison
[26] = ratio of human calcitonin receptor binding IC50 to human amylin receptor binding IC50

IC50 [1] [pM]	solubility at 18 h [2, 6] [µM]	solubility at 18 h [2, 7] [µM]	solubility at 18 h [2, 8] [µM]	solubility at 18 h [2, 9] [µM]	solubility at 18 h [2, 10] [µM]	solubility at 18 h [2, 11] [µM]	solubility at 18 h [2, 12] [µM]	solubility at 18 h [2, 13] [µM]	IC50 ([3]; Table 7) [pM]	Ratio rCT/rAmylin binding [3, 14]	Ratio rCT/rAmylin binding [3, 15]	Ratio rCT/rAmylin binding [3, 16]	Ratio hCT/hAmylin funct. [4, 17]	Ratio hCT/hAmylin funct. [4, 18]	Ratio hCT/hAmylin funct. [4, 19]	Ratio hCT/hAmylin binding [5, 20]	Ratio hCT/hAmylin binding [5, 21]	Ratio hCT/hAmylin binding [5, 24]	Ratio hCT/hAmylin binding [5, 25]	Compound	other results
61200	≥ 200	≥ 200	≥ 200	≥ 200	≥ 200	≥ 200	≥ 200	≥ 200	1420	42.9	42.9	42.9	13.3	13.3	13.3	87.2	87.2	87.2	87.2	CC[C@H](C)[C@H](NC(=O)[C@H](C)NC(=O)CNC(=O)[C@H](Cc1ccccc1)NC(=O)[C@H](CC(N)=O)NC(=O)[C@@H]1CCCN1C(=O)[C@H](CO)NC(=O)[C@H](CO)NC(=O)[C@H](Cc1c[nH]cn1)NC(=O)[C@H](CCCNC(=N)N)NC(=O)[C@H](CC(C)C)NC(=O)[C@H](Cc1ccccc1)NC(=O)[C@H](Cc1c[nH]cn1)NC(=O)[C@H](C)NC(=O)[C@H](CC(C)C)NC(=O)[C@H](CCCNC(=N)N)NC(=O)[C@H](CCC(N)=O)NC(=O)[C@@H](NC(=O)[C@H](C)NC(=O)[C@@H]1CSSC[C@H](NC(=O)[C@@H](N)CCCCNC(=O)CC[C@H](NC(=O)CCCCCCCCCCCCCCCCCCC(=O)O)C(=O)O)C(=O)N[C@@H](CC(N)=O)C(=O)N[C@@H]([C@@H](C)O)C(=O)N[C@@H](C)C(=O)N[C@@H]([C@@H](C)O)C(=O)N1)[C@@H](C)O)C(=O)N1CCC[C@H]1C(=O)N[C@@H](CO)C(=O)N[C@@H](CO)C(=O)N[C@H](C(=O)N[C@@H](CC(N)=O)C(=O)N[C@H](C(=O)NCC(=O)N[C@@H](Cc1c[nH]cn1)C(=O)N[C@@H](CC(N)=O)C(=O)N[C@H](C(=O)N[C@@H](Cc1ccc(O)cc1)C(N)=O)[C@@H](C)O)C(C)C)[C@@H](C)O [Example 81] (H-K([γGlu-C20 diacid])CNTATCATQRLAHFLRHSSPNFGAIPSSTNVGHNTY-NH2; disulfide 2-7; N-terminus assumed)	EC50 ([4]; human amylin receptor functional potency, assay (II), read-out: hAmylin-R funct. EC50): 130 pM; IC50 ([5]; Table 4, read-out: hAmylin-R bind IC50): 271 pM; Ratio hCT/hAmylin binding [5, 22]: 87.2; Ratio hCT/hAmylin binding [5, 23]: 87.2; Ratio hCT/hAmylin binding [5, 26]: 87.2
28500	≥ 200	193 (≈ 880 µg/mL)	≥ 200	≥ 200	138 (≈ 631 µg/mL)	≥ 200	≥ 200	≥ 200	234	121.9	121.9	121.9	17.4	17.4	17.4	64.4	64.4	64.4	64.4	CC[C@H](C)[C@H](NC(=O)[C@H](C)NC(=O)CNC(=O)[C@H](Cc1ccccc1)NC(=O)[C@H](CC(N)=O)NC(=O)[C@@H]1CCCN1C(=O)[C@H](CO)NC(=O)[C@H](CO)NC(=O)[C@H](Cc1c[nH]cn1)NC(=O)[C@H](CCCNC(=N)N)NC(=O)[C@H](CC(C)C)NC(=O)[C@H](Cc1ccccc1)NC(=O)[C@H](Cc1c[nH]cn1)NC(=O)[C@H](C)NC(=O)[C@H](CC(C)C)NC(=O)[C@H](CCCNC(=N)N)NC(=O)[C@H](CCC(N)=O)NC(=O)[C@@H](NC(=O)[C@H](C)NC(=O)[C@@H]1CSSC[C@H](NC(=O)[C@@H](N)CCCCNC(=O)COCCOCCNC(=O)CC[C@H](NC(=O)CCCCCCCCCCCCCCCCCCC(=O)O)C(=O)O)C(=O)N[C@@H](CC(N)=O)C(=O)N[C@@H]([C@@H](C)O)C(=O)N[C@@H](C)C(=O)N[C@@H]([C@@H](C)O)C(=O)N1)[C@@H](C)O)C(=O)N1CCC[C@H]1C(=O)N[C@@H](CO)C(=O)N[C@@H](CO)C(=O)N[C@H](C(=O)N[C@@H](CC(N)=O)C(=O)N[C@H](C(=O)NCC(=O)N1CCC[C@H]1C(=O)N[C@@H](CC(N)=O)C(=O)N[C@H](C(=O)N[C@@H](Cc1ccc(O)cc1)C(N)=O)[C@@H](C)O)C(C)C)[C@@H](C)O [Example 68] (H-K([AEEA-γGlu-C20 diacid])CNTATCATQRLAHFLRHSSPNFGAIPSSTNVGPNTY-NH2; disulfide 2-7)	Ratio hCT/hAmylin binding [5, 22]: 64.4; Ratio hCT/hAmylin binding [5, 23]: 64.4; Ratio hCT/hAmylin binding [5, 26]: 64.4
5980	≥ 200	≥ 200	≥ 200	≥ 200	≥ 200	≥ 200	≥ 200	≥ 200	176	34.0	34.0	34.0	6.6	6.6	6.6	10.9	10.9	10.9	10.9	CC[C@H](C)[C@H](NC(=O)[C@H](C)NC(=O)CNC(=O)[C@H](Cc1ccccc1)NC(=O)[C@H](CC(N)=O)NC(=O)[C@@H]1CCCN1C(=O)[C@H](CO)NC(=O)[C@H](CO)NC(=O)[C@H](Cc1c[nH]cn1)NC(=O)[C@H](CCCNC(=N)N)NC(=O)[C@H](CC(C)C)NC(=O)[C@H](Cc1ccccc1)NC(=O)[C@H](CCC(=O)O)NC(=O)[C@H](C)NC(=O)[C@H](CC(C)C)NC(=O)[C@H](CCCNC(=N)N)NC(=O)[C@H](CCC(N)=O)NC(=O)[C@@H](NC(=O)[C@H](C)NC(=O)[C@@H]1CSSC[C@H](NC(=O)[C@H](CCCCN)NC(=O)CC[C@H](NC(=O)CCCCCCCCCCCCCCCCCCC(=O)O)C(=O)O)C(=O)N[C@@H](CC(N)=O)C(=O)N[C@@H]([C@@H](C)O)C(=O)N[C@@H](C)C(=O)N[C@@H]([C@@H](C)O)C(=O)N1)[C@@H](C)O)C(=O)N1CCC[C@H]1C(=O)N[C@@H](CO)C(=O)N[C@@H](CO)C(=O)N[C@H](C(=O)N[C@@H](CC(N)=O)C(=O)N[C@H](C(=O)NCC(=O)N1CCC[C@H]1C(=O)N[C@@H](CC(N)=O)C(=O)N[C@H](C(=O)N[C@@H](Cc1ccc(O)cc1)C(N)=O)[C@@H](C)O)C(C)C)[C@@H](C)O [Example 32] ({C20 diacid-γGlu}-KCNTATCATQRLAEFLRHSSPNFGAIPSSTNVGPNTY-NH2; disulfide 2-7)	Ratio hCT/hAmylin binding [5, 26]: 10.9
